This assay concerns the target Sterol 14-alpha demethylase (Trypanosoma cruzi (strain CL Brener), UniProt Q7Z1V1). Nature of the assay: Spectral Titration of TCCYP51. As to conditions: pH 7.4; 24 °C. The protocol:
As a cysteine-coordinated hemoprotein, sterol 14-alpha-demethylase responds spectrally to any perturbations in the area surrounding the heme iron. These spectral responses can be used to estimate the apparent dissociation constants (Kd) of the enzyme/ligand complexes. […] The tested compounds were added in 1 ul aliquots to the test cuvette until the maximum in spectral response was reached. Equal volumes of DMSO were added to the reference cuvette. The apparent Kd values were determined from the equilibrium titration curves by plotting absorbance changes against the concentration of free ligand and fitting the data to a rectangular hyperbola using SigmaPlot Statistics.

Structures are written as SMILES.

By Kd is commonly meant the equilibrium constant for the complex coming apart. A low value points to a tighter complex.

Sterol 14-alpha demethylase, sequence (Q7Z1V1 whole entry): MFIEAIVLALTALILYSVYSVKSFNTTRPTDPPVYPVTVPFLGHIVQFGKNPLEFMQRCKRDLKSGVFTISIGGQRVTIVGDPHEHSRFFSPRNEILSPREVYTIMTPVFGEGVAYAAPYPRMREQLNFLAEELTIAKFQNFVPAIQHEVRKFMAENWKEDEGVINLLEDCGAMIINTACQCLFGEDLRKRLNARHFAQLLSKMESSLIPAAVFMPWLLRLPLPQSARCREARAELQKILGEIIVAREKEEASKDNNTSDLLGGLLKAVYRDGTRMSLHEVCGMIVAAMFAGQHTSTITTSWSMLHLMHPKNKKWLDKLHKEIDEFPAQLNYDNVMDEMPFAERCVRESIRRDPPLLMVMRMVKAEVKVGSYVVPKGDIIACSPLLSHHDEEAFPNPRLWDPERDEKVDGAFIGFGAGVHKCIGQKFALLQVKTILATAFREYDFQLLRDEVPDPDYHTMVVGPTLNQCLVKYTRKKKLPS

The compound `COc1ccc2c(c1)c(CC(=O)NCc1ccc(C(F)(F)F)nc1)c(C)n2C(=O)c1ccc(Cl)cc1` [Indomethacin-amide derivative, 19] showed a Kd of 560 nM.

As to `COc1ccc2c(c1)c(CC(=O)NCc1ccc(Cl)nc1)c(C)n2C(=O)c1ccc(Cl)cc1` [Indomethacin-amide derivative, 18], the Kd is 260 nM.

For the compound `COc1ccc2c(c1)c(CC(=O)Nc1cccnc1C)c(C)n2C(=O)c1ccc(Cl)cc1` [Indomethacin-amide derivative, 13], the affinity, expressed as Kd, was 7600 nM. This Kd lies about 29-fold higher than the previous one.

The values above are taken from BindingDB's records for doi:10.1021/jm801643b (Vanderbilt University, 2009).
